Values joined by “and” are separate entries in the source; they are usually repeats but may differ in a detail not shown here. Equal values may be shown once.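 Test compounds were applied to cells in 96-well plates for 48 hours at 5 doses. GI50 = concentration required for 50% inhibition of growth.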 Active and inactive are the calls of the source. Rule as the data show it: active = GI50 up to about 1.1 µM and inactive = higher.
Columns and labels:
Test in all cases: growth of human tumour cells (NCI), 48 h
A498 = test system: A498
ACHN = test system: ACHN
BT-549 = test system: BT-549
CCRF-CEM = test system: CCRF-CEM
COLO 205 = test system: COLO 205
DU-145 = test system: DU-145
HCC 2998 = test system: HCC 2998
HCT-116 = test system: HCT-116
K562 = test system: K562
MDA-MB-435 = test system: MDA-MB-435
MOLT-4 = test system: MOLT-4
Malme-3M = test system: Malme-3M
NCI/ADR-RES = test system: NCI/ADR-RES
OVCAR-3 = test system: OVCAR-3
OVCAR-8 = test system: OVCAR-8
RPMI-8226 = test system: RPMI-8226
RXF 393 = test system: RXF 393
SF-268 = test system: SF-268
SNB-75 = test system: SNB-75

Measured: GI50

CC(=O)c1c(C)[n+]([O-])c2cc(Cl)c(Cl)cc2[n+]1[O-]
inactive: A498 23.7 µM | ACHN 17.8 µM | BT-549 15.6 µM | CCRF-CEM 13.7 µM | COLO 205 15.7 µM | DU-145 23.1 µM | HCC 2998 21.6 µM | HCT-116 15.6 µM | K562 19.4 µM | MDA-MB-435 21.3 µM | MOLT-4 8.22 µM | Malme-3M 6.58 µM | NCI/ADR-RES 16.7 µM | OVCAR-3 19.9 µM | OVCAR-8 14.2 µM | RPMI-8226 5.5 µM | RXF 393 > 100 µM | SF-268 28.3 µM

CC1(C)O[C@@H]2COC(=O)[C@@H]2O1
inactive: A498 > 100 µM | ACHN > 100 µM | BT-549 > 100 µM | CCRF-CEM > 100 µM | COLO 205 > 100 µM | DU-145 > 100 µM | HCC 2998 > 100 µM | HCT-116 > 100 µM | K562 > 100 µM | MDA-MB-435 > 100 µM | MOLT-4 > 100 µM | Malme-3M > 100 µM | NCI/ADR-RES > 100 µM | OVCAR-3 > 100 µM | OVCAR-8 > 100 µM | RXF 393 > 100 µM | SF-268 > 100 µM | SNB-75 > 100 µM

CN(CCCNC(=O)c1cn(C)c2c1ccc1cc(Cl)c(Cl)cc12)CCCNC(=O)c1cn(C)c2c1ccc1cc(Cl)c(Cl)cc12
inactive: A498 12.9 µM | ACHN 13.1 µM | BT-549 15.6 µM | CCRF-CEM 8.53 µM | COLO 205 3.18 µM | DU-145 15.3 µM | HCC 2998 4 µM | HCT-116 12.2 µM | K562 5.41 µM | MDA-MB-435 6.17 µM | MOLT-4 10.4 µM | Malme-3M 17.1 µM | NCI/ADR-RES 15.2 µM | OVCAR-3 18.2 µM | OVCAR-8 14.8 µM | RXF 393 4.42 µM | SF-268 13.7 µM | SNB-75 10.8 µM

Cn1c2c(c3ccccc31)CC(=O)N1CCCCC1C21OCCO1 (centres undefined)
inactive: A498 > 100 µM | ACHN > 100 µM | BT-549 > 100 µM | CCRF-CEM > 100 µM | COLO 205 > 100 µM | DU-145 > 100 µM | HCC 2998 > 100 µM | HCT-116 > 100 µM | MDA-MB-435 > 100 µM | MOLT-4 > 100 µM | Malme-3M > 100 µM | NCI/ADR-RES > 100 µM | OVCAR-3 > 100 µM | OVCAR-8 > 100 µM | RPMI-8226 > 100 µM | RXF 393 > 100 µM | SF-268 > 100 µM | SNB-75 > 100 µM

CC(C)CC(N)C(=O)NC(C(=O)NC(CCCNC(=N)N)C(=O)NC(CS)C(=O)NC1CSCC(C(=O)NC(Cc2ccccc2)C(=O)NC(C(=O)NC(CCCNC(=N)N)C(=O)O)C(C)C)NC(=O)C2CCCN2C(=O)C(CCCCN)NC(=O)C2CCCN2C(=O)C2CCCN2C(=O)C(Cc2ccc(O)cc2)NC(=O)C(CO)NC(=O)C(CCCCN)NC(=O)C(C(C)O)NC(=O)C(Cc2c[nH]c3ccccc23)NC1=O)C(C)C (centres undefined)
inactive: A498 > 25 µM | ACHN > 25 µM | BT-549 > 25 µM | CCRF-CEM > 25 µM | COLO 205 > 25 µM | DU-145 > 25 µM | HCT-116 > 25 µM | K562 > 25 µM | MDA-MB-435 > 25 µM | MOLT-4 > 25 µM | Malme-3M > 25 µM | NCI/ADR-RES > 25 µM | OVCAR-3 > 25 µM | OVCAR-8 > 25 µM | RPMI-8226 > 25 µM | SF-268 > 25 µM

OB1OCc2ccccc21 [BENZOXABOROLE]
inactive: A498 34.5 µM | BT-549 > 100 µM | CCRF-CEM 18 µM | COLO 205 33.7 µM | DU-145 > 100 µM | HCT-116 44.4 µM | K562 67.8 µM | MDA-MB-435 35.9 µM | MOLT-4 69.8 µM | Malme-3M > 100 µM | NCI/ADR-RES 22.3 µM | OVCAR-3 60.4 µM | OVCAR-8 31.1 µM | RPMI-8226 18.2 µM | SF-268 42.2 µM

COC(=O)[C@H](Cc1ccccc1)NC(=O)[C@H](Cc1ccccc1)NC(=O)CN1C(=O)[C@@H]2C3C=CC(C3)[C@@H]2C1=O
inactive: A498 22.9 µM and 16.8 µM | ACHN 16.7 µM and 16.2 µM | BT-549 16.6 µM and 18.2 µM | COLO 205 17.1 µM and 15.8 µM | DU-145 20.1 µM and 17.9 µM | HCC 2998 17.3 µM and 16.7 µM | HCT-116 16.6 µM and 14.3 µM | MDA-MB-435 15.3 µM and 17.3 µM | MOLT-4 3.32 µM and 2.26 µM | NCI/ADR-RES 33 µM and 22.2 µM | OVCAR-3 16.6 µM and 18 µM | OVCAR-8 14.8 µM and 19.6 µM | RPMI-8226 21.6 µM and 14.9 µM | RXF 393 20.5 µM and 18.4 µM | SF-268 13.2 µM and 17.7 µM | SNB-75 18.7 µM and 18 µM
